Values after ≈ are worked out from the molar mass of the structure shown.
Key:
Plasmodium falciparum [1] = test: Antiplasmodial activity against chloroquine-resistant Plasmodium falciparum in human B+ erythrocytes assessed as inhibition of schizont maturation after 24 hrs by conventional parasite culture method; type: functional, organism-based
Plasmodium falciparum [2] = test: Antiplasmodial activity against chloroquine-sensitive Plasmodium falciparum MRC-02 in human B+ erythrocytes assessed as inhibition of schizont maturation after 24 hrs by conventional parasite culture method; type: functional, organism-based; conditions: MRC-02, 24 h
Plasmodium falciparum [3] = test: Antiplasmodial activity against chloroquine-sensitive Plasmodium falciparum MRC-02 in human B+ erythrocytes assessed as inhibition of schizont maturation at 0.25 ug/mL after 24 hrs by conventional parasite culture method; type: functional; conditions: MRC-02, 24 h

SMILES: CC(=O)OC[C@@H]1CC[C@]2(C)C(C)=CC(=O)C[C@H]2[C@]1(C)CCC1=CCOC1=O
- IC50 (Plasmodium falciparum [1]): 3.2 µg/mL (≈ 8.55 µM)
- IC50 (Plasmodium falciparum [2]): 3.4 µg/mL (≈ 9.08 µM)

SMILES: CC1=CC(=O)C[C@H]2[C@](C)(CCC3=CCOC3=O)[C@H](CO)CC[C@]12C [GOMPHOSTENIN]
- IC50 (Plasmodium falciparum [1]): 37.7 µg/mL (≈ 113 µM)
- IC50 (Plasmodium falciparum [2]): 38.2 µg/mL (≈ 115 µM)

SMILES: CCN(CC)CCCC(C)Nc1ccnc2cc(Cl)ccc12 (stereo not given) [CHLOROQUINE]
- inhibition at 0.25 µg/mL (Plasmodium falciparum [3]): 100%

Source: ChEMBL document CHEMBL1158502, “Gomphostenins: two new antimalarial compounds from the leaves of Gomphostemma niveum” (Bioorg Med Chem Lett, 2010)
